For assay [1], the system named is Schistosoma mansoni. Put plainly: Antischistosomal activity against Schistosoma mansoni at 50 uM measured after 120 hrs relative to control. In kind it is functional.
Assay [2] relates to Schistosoma mansoni. Put plainly: Antischistosomal activity against Schistosoma mansoni BH infected in Swiss Webster mouse assessed as worm burden reduction at 100 mg/kg, po administered for 5 consecutive days and measured 15 days post-treatment (reference value: 19.8%). In kind it is functional. On the set-up: scale not given: the % may be the effect or the level left. The following applies: time 15 day.

Assay [3] deals with Schistosoma mansoni. As to the kind of experiment: Antischistosomal activity against Schistosoma mansoni LE assessed as worm vitality at 20 uM incubated for 24 hrs by microscopic method relative to control. In kind it is functional.
Assay [4] relates to Schistosoma mansoni. As to the kind of experiment: Antischistosomal activity against Schistosoma mansoni LE assessed as worm mortality at 20 uM incubated for 72 hrs by microscopic method relative to control. It is filed as functional.
For the next assay, the system named is Schistosoma japonicum. Put plainly: Antischistosomal activity against Schistosoma japonicum assessed as worm mortality at 5 ug/ml incubated for 72 hrs by microscopic method relative to control. In kind it is functional. To be noted: dose 5 µg/ml.
The test system of assay [5] is Plasmodium falciparum. Put plainly: Antiplasmodial activity against Plasmodium falciparum 3D7 incubated for 72 hrs by SYBR Green1 by fluorometric assay. In kind it is functional, organism-based. The following applies: 3D7, 72 h.
Assay [6] has as its system Plasmodium falciparum. As to the kind of experiment: Antiplasmodial activity against Plasmodium falciparum Dd2 incubated for 72 hrs by SYBR Green1 by fluorometric assay. The following applies: Dd2, 72 h. It is filed as functional, organism-based.
Assay [7] relates to Schistosoma mansoni. Put plainly: Antischistosomal activity against Schistosoma mansoni at 50 uM measured after 96 hrs relative to control. It is filed as functional.
The subject of assay [8] is Schistosoma mansoni. As to the kind of experiment: Antischistosomal activity against Schistosoma mansoni NRMI schistosomula incubated for 24 hrs. It is filed as functional.
The subject of the next assay is CHO-K1. As to the kind of experiment: Cytotoxicity against CHO-K1 cells incubated for 24 hrs by colorimetric assay. In kind it is functional, cell-based. To be noted: Cricetulus griseus, CHO-K1, 24 h.
For assay [9], the system named is Schistosoma mansoni. As to the kind of experiment: Antischistosomal activity against female Schistosoma mansoni LE incubated for 24 hrs by MTT assay. It is filed as functional. A general note: Formazan colour is commonly taken as a measure of viable cells.
For assay [10], the system named is Schistosoma mansoni. As to the kind of experiment: Antischistosomal activity against male Schistosoma mansoni LE incubated for 24 hrs by MTT assay. It is filed as functional.
The test system of assay [11] is Schistosoma mansoni. Put plainly: Antischistosomal activity against Schistosoma mansoni BH infected in Balb/c mouse assessed as reduction in worm burden at 400 mg/kg, po measurement after 2 weeks. In kind it is functional. Further details: scale not given: the % may be the effect or the level left.
In a further assay the target is T1, ATP-diphosphohydrolase 1 (Schistosoma mansoni, UniProt Q7YTA4).
T1 sequence (Q7YTA4 whole entry): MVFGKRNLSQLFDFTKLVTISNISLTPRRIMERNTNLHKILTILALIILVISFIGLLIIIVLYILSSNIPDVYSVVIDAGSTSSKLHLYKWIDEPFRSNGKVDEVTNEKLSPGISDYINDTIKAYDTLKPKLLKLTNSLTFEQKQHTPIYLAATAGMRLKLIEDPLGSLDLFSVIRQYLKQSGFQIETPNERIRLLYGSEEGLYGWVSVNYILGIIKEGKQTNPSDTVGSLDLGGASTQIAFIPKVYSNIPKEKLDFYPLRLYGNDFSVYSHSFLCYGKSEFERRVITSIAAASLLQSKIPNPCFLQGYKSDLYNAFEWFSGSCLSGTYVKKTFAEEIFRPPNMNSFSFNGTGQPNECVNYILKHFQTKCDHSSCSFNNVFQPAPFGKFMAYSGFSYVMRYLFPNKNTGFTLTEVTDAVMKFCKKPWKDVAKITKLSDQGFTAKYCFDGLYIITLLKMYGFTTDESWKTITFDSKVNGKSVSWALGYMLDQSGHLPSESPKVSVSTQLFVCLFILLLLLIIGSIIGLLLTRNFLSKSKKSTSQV
Put plainly: Inhibition of Schistosoma mansoni ATPDase1 incubated for 30 mins.

Assay [12] relates to Schistosoma mansoni. As to the kind of experiment: Antischistosomal activity against juvenile Schistosoma mansoni Puerto Rican incubated for 72 hrs by microscopic method. It is filed as functional, organism-based.
For assay [13], the system named is Schistosoma mansoni. As to the kind of experiment: Antischistosomal activity against Schistosoma mansoni Puerto Rican schistosomula assessed as effect on worm motility measured after 72 hrs. In kind it is functional, organism-based.
In assay [14] the test system is Schistosoma mansoni. As to the kind of experiment: Antischistosomal activity against Schistosoma mansoni Puerto Rican schistosomula assessed as effect on worm phenotype measured after 72 hrs. In kind it is functional, organism-based.
For assay [15], the system named is Schistosoma mansoni. As to the kind of experiment: Antischistosomal activity against adult Schistosoma mansoni Puerto Rican incubated for 72 hrs by microscopic method. In kind it is functional, organism-based.
Assay [16] concerns Schistosoma mansoni. As to the kind of experiment: Antischistosomal activity against adult Schistosoma mansoni LE assessed as reduction in motor activity at 50 uM measured after 24 hrs by inverted microscopy relative to control. Further details: scale not given: the % may be the effect or the level left. It is filed as functional.
Assay [17] deals with Schistosoma mansoni. Put plainly: Antischistosomal activity against adult Schistosoma mansoni LE assessed as seperation of male and female worms at 10 uM measured after 24 hrs by inverted microscopy relative to control. It is filed as functional.
Assay [18] deals with Schistosoma mansoni. As to the kind of experiment: Antischistosomal activity against adult Schistosoma mansoni LE assessed as reduction in motor activity at 10 uM measured after 24 hrs by inverted microscopy relative to control. It is filed as functional. On the set-up: scale not given: the % may be the effect or the level left.

The text below walks through data of ChEMBL document CHEMBL4811216, “Chemotherapy for human schistosomiasis: how far have we come? What's new? Where do we go from here?” (RSC Med Chem, 2020).

Consider `CN(Nc1ccc(Cl)cc1)C1NC(=O)N(Cc2ccccc2)C1=S` (configuration not stated), for which the Activity in the assay with Schistosoma mansoni [1] was determined as 100%; in the assay on Schistosoma mansoni [2] it was 70.5%.
On to `COc1cc(OC)c(/C=C2\NC(=O)N(Cc3c(F)cccc3Cl)C2=S)c(OC)c1`, for which the Activity with Schistosoma mansoni [3] and in the assay on Schistosoma mansoni [4] was 100% each time.
For the molecule `CCCCNCC(O)Cn1c2ccc(Cl)cc2c2cc(Cl)ccc21` (configuration not stated), in the assay with Schistosoma japonicum, the Activity was 100%. Moreover, the IC50 – broadly, the concentration at which inhibition is half-maximal – in the assay with Plasmodium falciparum [5] is 0.274 µM; in the assay on Plasmodium falciparum [6] it was 0.047 µM.
With `CN(c1ccc(F)cc1)N(C)C1NC(=O)N(Cc2ccc(Cl)cc2)C1=S` (configuration not stated), the Activity in the assay with Schistosoma mansoni [1] and in the assay on Schistosoma mansoni [7] was 100% throughout.
Consider `CC(C)c1cc2c(cc1O)C(=O)C[C@H]1C(C)(C)CCC[C@]21C`, for which the 50% lethal concentration (LC50) (usually the concentration lethal to half of the exposed cells or organisms) in the assay on Schistosoma mansoni [8] turned out to be 19.1 µM.
In turn, `C=CC(C)(C)c1cc(/C=C/C(=O)c2ccc(O)cc2)c(OC)cc1O` [LICOAGROCHACONE A] gave an IC50 in the assay with CHO-K1 of 508 µM. Further, the median lethal concentration (LC50) came to 9.12 µM in the assay on Schistosoma mansoni [9] and 9.52 µM in the assay on Schistosoma mansoni [10].
Regarding `COc1ccc(/C=C/C(=O)c2ccccc2O)cc1`, the Activity with Schistosoma mansoni [11] is 32.8%. This molecule also displayed an IC50 on ATP-diphosphohydrolase 1 of 30.6 µM.
Consider `CC1(C)CCC[C@]2(C)C(CC[C@@](C)(O)/C=C/c3ccc(F)cc3)[C@](C)(O)CC[C@@H]12` (some centres not stated), for which the half-maximal inhibitory concentration (IC50) was < 2 µM in the assay on Schistosoma mansoni [12], < 2 µM with Schistosoma mansoni [13], < 2 µM in the assay with Schistosoma mansoni [14] and 9.4 µM in the assay on Schistosoma mansoni [15].
Regarding `COc1cc(C[C@@H]2C(=O)OC[C@H]2Cc2cc(OC)c3c(c2)OCO3)cc(OC)c1OC`, the Activity with Schistosoma mansoni [16] is listed as >75%; in the assay with Schistosoma mansoni [17], >85%; with Schistosoma mansoni [18] it was 100%.
